From ChEMBL document CHEMBL4316627, “Modulation of the NOD-like receptors NOD1 and NOD2: A chemist's perspective” (Bioorg Med Chem Lett, 2019)
Blank lines part the entries; values can stand above or below the compound they belong to.

Tests used:
[1] = target: T1, Nucleotide-binding oligomerization domain-containing protein 1 (Homo sapiens, UniProt Q9Y239); test: Binding affinity to NOD1 LRR domain (unknown origin)
T1 sequence (Q9Y239 whole entry): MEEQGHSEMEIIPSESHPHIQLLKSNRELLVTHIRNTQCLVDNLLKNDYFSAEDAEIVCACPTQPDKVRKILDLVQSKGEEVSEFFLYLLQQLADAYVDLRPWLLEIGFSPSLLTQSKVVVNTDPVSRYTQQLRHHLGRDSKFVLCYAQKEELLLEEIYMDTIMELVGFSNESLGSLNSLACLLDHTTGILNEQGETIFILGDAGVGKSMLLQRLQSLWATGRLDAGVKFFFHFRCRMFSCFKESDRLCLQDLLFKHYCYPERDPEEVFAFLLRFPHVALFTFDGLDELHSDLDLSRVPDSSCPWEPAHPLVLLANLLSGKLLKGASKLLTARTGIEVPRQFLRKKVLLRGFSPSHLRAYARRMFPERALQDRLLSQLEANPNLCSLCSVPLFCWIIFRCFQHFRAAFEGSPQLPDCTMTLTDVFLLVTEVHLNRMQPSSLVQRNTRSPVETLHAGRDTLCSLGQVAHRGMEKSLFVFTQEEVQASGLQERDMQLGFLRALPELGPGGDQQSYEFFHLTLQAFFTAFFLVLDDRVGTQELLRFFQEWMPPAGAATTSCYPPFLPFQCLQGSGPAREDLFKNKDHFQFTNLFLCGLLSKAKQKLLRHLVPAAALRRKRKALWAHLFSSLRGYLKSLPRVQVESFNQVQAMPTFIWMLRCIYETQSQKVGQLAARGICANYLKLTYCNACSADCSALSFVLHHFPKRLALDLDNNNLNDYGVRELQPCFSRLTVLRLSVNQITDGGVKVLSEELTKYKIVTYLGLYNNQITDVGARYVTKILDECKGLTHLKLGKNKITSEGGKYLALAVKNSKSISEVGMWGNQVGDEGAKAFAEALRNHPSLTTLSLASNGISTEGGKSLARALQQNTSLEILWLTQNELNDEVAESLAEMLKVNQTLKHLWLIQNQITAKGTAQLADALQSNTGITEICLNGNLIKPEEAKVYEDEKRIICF

[2] = Binding affinity to Jack bean Concanavalin A by SPR assay; set-up: species or system Canavalia ensiformis
[3] = target: T2, Jacalin (Artocarpus heterophyllus, UniProt Q38720); test: Binding affinity to jackfruit jacalin by SPR assay
T2 sequence (Q38720 whole entry): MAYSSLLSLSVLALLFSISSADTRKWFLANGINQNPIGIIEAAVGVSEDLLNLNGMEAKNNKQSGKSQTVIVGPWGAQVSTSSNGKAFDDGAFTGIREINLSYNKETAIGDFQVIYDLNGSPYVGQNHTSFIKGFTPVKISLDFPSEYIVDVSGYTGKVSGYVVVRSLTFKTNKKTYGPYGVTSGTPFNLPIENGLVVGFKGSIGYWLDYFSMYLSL

[4] = target: Nucleotide-binding oligomerization domain-containing protein 2 (Homo sapiens, UniProt Q9HC29); test: Binding affinity to human NOD2 LRR domain expressed in Escherichia coli by SPR assay
Chain of Nucleotide-binding oligomerization domain-containing protein 2 (Q9HC29 whole entry, the tested form may be a part): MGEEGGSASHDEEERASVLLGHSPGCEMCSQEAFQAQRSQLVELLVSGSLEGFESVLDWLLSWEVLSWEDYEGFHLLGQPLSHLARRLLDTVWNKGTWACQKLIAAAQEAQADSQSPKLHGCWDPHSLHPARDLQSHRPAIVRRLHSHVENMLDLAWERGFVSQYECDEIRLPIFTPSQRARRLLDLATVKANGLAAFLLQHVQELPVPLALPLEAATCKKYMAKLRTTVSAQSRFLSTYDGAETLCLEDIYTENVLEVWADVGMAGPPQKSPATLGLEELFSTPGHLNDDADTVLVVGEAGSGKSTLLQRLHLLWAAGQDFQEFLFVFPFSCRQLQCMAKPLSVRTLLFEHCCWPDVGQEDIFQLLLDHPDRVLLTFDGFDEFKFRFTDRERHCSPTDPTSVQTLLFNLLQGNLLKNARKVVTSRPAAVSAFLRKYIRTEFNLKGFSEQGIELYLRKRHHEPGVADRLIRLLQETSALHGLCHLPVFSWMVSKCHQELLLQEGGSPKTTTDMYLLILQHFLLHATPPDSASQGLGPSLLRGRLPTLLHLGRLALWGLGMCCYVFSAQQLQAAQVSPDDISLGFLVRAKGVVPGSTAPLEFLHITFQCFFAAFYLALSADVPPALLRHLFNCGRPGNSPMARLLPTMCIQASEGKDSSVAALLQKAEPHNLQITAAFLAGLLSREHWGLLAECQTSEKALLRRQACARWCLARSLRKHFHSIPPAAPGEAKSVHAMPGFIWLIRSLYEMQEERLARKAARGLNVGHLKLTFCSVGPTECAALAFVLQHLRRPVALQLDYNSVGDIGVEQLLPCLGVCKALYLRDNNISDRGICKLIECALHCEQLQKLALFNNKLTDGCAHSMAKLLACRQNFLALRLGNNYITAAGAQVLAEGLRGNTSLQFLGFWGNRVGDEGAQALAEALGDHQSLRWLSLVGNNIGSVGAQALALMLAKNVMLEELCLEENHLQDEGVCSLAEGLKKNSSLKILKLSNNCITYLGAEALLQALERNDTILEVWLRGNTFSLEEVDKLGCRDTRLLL

Kd [1]: 35 µM
Structure (SMILES): C[C@H](N)C(=O)N[C@H](CCC(=O)N[C@@H](CCC[C@@H](N)C(=O)O)C(=O)O)C(N)=O

Kd [2]: 200 µM
Structure (SMILES): OC[C@H]1OC(O)[C@@H](O)[C@@H](O)[C@@H]1O (stereo partly drawn) [D-MANNOSE]

Kd [3]: 16 µM
Structure (SMILES): O=C[C@H](O)[C@@H](O)[C@@H](O)[C@H](O)CO [GALACTOSE]

Kd [4]: 0.2 µM
Structure (SMILES): CC(=O)N[C@H]1C(O)O[C@H](CO)[C@@H](O)[C@@H]1O[C@H](C)C(=O)N[C@@H](C)C(=O)N[C@H](CCC(=O)O)C(N)=O (some centres undefined) [MURAMYL DIPEPTIDE]
